Results taken from the supplement of paper PMC4862054.

Assays:
Assay in all cases: normalised response (% of control), CellTox Green; higher = less cell death (100 = DMSO, 0 = benzethonium chloride kill control)
Details in all cases: incubation time: 72 h
MDA-MB-468 = tested on: MDA-MB-468
Method in brief: (§1)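 After 72 h with compound in 384-well plates, breast cancer cell lines seeded as 20 µl suspension were read for CellTox Green fluorescence at 485/520 nm. CellTiter-Glo luminescence was then read after 10 min at room temperature. Compound was present at 5 concentrations in 10-fold steps over a 10,000-fold range set per compound, and plates were normalised to 0.1 % DMSO (100) and a positive kill control (0). Values are normalised signals, each at a single concentration.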

CAL-51 = tested on: CAL-51
Method in brief: as §1

MDA-MB-436 = tested on: MDA-MB-436
Method in brief: as §1

MCF-10A = tested on: MCF-10A
Method in brief: as §1

CAL-85-1 = tested on: CAL-85-1
Method in brief: as §1

MDA-MB-231 = tested on: MDA-MB-231
Method in brief: as §1

Hs578T = tested on: Hs578T
Method in brief: as §1

CAL-120 = tested on: CAL-120
Method in brief: as §1

CAL-148 = tested on: CAL-148
Method in brief: as §1

| Structure (SMILES) | normalised response (MDA-MB-468) | normalised response (CAL-51) | normalised response (MDA-MB-436) | normalised response (MCF-10A) | normalised response (CAL-85-1) | normalised response (MDA-MB-231) | normalised response (Hs578T) | normalised response (CAL-120) | normalised response (CAL-148) |
| --- | --- | --- | --- | --- | --- | --- | --- | --- | --- |
| Cc1ccc(NC(=O)c2ccc(CN3CCN(C)CC3)cc2)cc1Nc1nc(-c2cccnc2)cs1 [Masitinib] (10000 nM) | 37% | 74.2% | 31.8% | 90.8% | 76.8% | -12.8% | 70.7% | 78.5% | 101% |
| O=C(Nc1cccnc1)N1CCC(Cc2cccc(Oc3ccc(C(F)(F)F)cn3)c2)CC1 [PF-3845] (10000 nM) | 172% | 108% | 101% | 103% | 69.5% | 108% | 90.3% | 97.4% | 103% |
| COc1cc(OC2CCN(C)CC2)ccc1Nc1ncc2c(n1)n(C1CCCC1)c(=O)n2C [AZ 3146] (10000 nM) | 75.5% | 27.1% | 47.3% | 71% | 82.7% | 81.8% | 98.7% | 94.6% | 60.4% |
| N#Cc1ccc(COC[C@H]2O[C@@H](n3c(NCc4ccc(Cl)c(Cl)c4)nc4c(N)ncnc43)[C@H](O)[C@@H]2O)cc1 (10000 nM) | 103% | 91.6% | 87.8% | 103% |  | 105% | 120% | 98.2% | 95.2% |
| CN(C)CCOc1ccc(/C(=C(/CCCl)c2ccccc2)c2ccccc2)cc1 [Toremifene] (10000 nM) | 9.03% | 104% | 91.7% | 69.2% | 79.9% | 47.6% | 103% | 91.8% | 59.6% |
| NC(=O)c1ccc(I)c([N+](=O)[O-])c1 [Iniparib] (1000 nM) | 125% | 90.7% | 93.9% | 81.6% | 101% | 98.8% | 56.3% | 93.3% | 82.5% |
| CNC(=O)c1cc(Oc2ccc(NC(=O)Nc3ccc(Cl)c(C(F)(F)F)c3)c(F)c2)ccn1 [Regorafenib] (10000 nM) | 152% | 108% | 113% | 94.5% | 83.8% | 94.3% | 109% | 97.2% | 85.1% |
| O=C(Nc1cccnc1)N1CCC(Cc2cccc(Oc3ccc(C(F)(F)F)cn3)c2)CC1 [PF-3845] (1000 nM) | 132% | 117% | 108% | 115% | 106% | 116% | 115% | 106% | 107% |
| c1ccc2c(CCNc3ccc(Nc4ccncc4)cc3)c[nH]c2c1 [Serdemetan] (1000 nM) | 12.4% | -44.2% | 81.8% | 96.9% | 102% | 93.9% | 92.3% | 97.1% | 73.4% |
| Oc1ccc2c(c1)CC[C@H](c1ccccc1)[C@@H]2c1ccc(OCCN2CCCC2)cc1 [Lasofoxifene] (100 nM) | 111% | 123% | 104% | 111% | 82.2% | 125% | 84.9% | 93.6% | 62.9% |
| COc1cc2/c(=N/c3ccc(Br)cc3F)nc[nH]c2cc1OCC1CCN(C)CC1 [Vandetanib] (1000 nM) | 128% | 96.5% | 84.6% | 84% | 117% | 80.5% | 105% | 56.3% | 99.8% |
| O=C(Nc1ccncc1)C(=O)c1cn(Cc2ccc(Cl)cc2)c2ccccc12 [Indibulin] (10000 nM) | 63.6% | -2.59% | 93.6% | 84% | 16.7% | 46.3% | 76.3% | 85.8% | 65.3% |
| N#Cc1ccc(COC[C@H]2O[C@@H](n3c(NCc4ccc(Cl)c(Cl)c4)nc4c(N)ncnc43)[C@H](O)[C@@H]2O)cc1 (1000 nM) | 143% | 119% | 96.5% | 92.3% | 97.6% | 114% | 103% | 96.4% | 107% |
| COCC1(CO)C(=O)C2CCN1CC2 (stereo unspecified) [Prima-1 Met] (1000 nM) | 103% | 111% | 71% | 101% | 102% | 98.3% | 108% | 99.5% | 71.1% |
| COc1cc2ncnc(Nc3ccc(F)c(Cl)c3)c2cc1OCCCN1CCOCC1 [Gefitinib] (1000 nM) | 125% | 108% | 91.5% | 99.2% | 79.5% | 101% | 95.9% | 100% | 89.8% |
| O=C(/C=C/c1cccc(S(=O)(=O)Nc2ccccc2)c1)NO [Belinostat] (1000 nM) | 97.7% | 50.8% | 79.3% | 70% | 51.1% | 22.3% | 77.3% | 70.4% | 66.4% |

| Structure (SMILES) | normalised response (MDA-MB-468) | normalised response (CAL-51) | normalised response (MDA-MB-436) | normalised response (MCF-10A) | normalised response (CAL-85-1) | normalised response (MDA-MB-231) | normalised response (Hs578T) | normalised response (CAL-120) | normalised response (CAL-148) |
| --- | --- | --- | --- | --- | --- | --- | --- | --- | --- |
| Cc1ccc(NC(=O)c2ccc(CN3CCN(C)CC3)cc2)cc1Nc1nc(-c2cccnc2)cs1 [Masitinib] (1000 nM) | 177% | 103% | 68.7% | 103% | 98.9% | 114% | 97.8% | 99.2% | 97.3% |
| CCc1c2c(nc3ccc(OC(=O)N4CCC(N5CCCCC5)CC4)cc13)-c1cc3c(c(=O)n1C2)COC(=O)[C@]3(O)CC [Irinotecan] (1000 nM) | 141% | 61.9% | 44.5% |  | 93.1% | 113% | 81.9% | 93.5% | 29.8% |
| O=P1(N(CCCl)CCCl)NCCCO1 (stereo unspecified) [Cyclophosphamide] (40000 nM) |  | 105% | 105% | 76.1% | 92.4% | 102% | 50.5% | 98.7% | 102% |
| COCC[n+]1c2c(n(Cc3cnccn3)c1C)C(=O)c1ccccc1C2=O [YM155] (1000 nM) | -55.5% | 4.79% | -1.05% | -47.8% | -94.7% | -31.1% | 92.9% | -14.7% | -7.66% |
| Oc1ccc2c(c1)CC[C@H](c1ccccc1)[C@@H]2c1ccc(OCCN2CCCC2)cc1 [Lasofoxifene] (1000 nM) | 178% | 105% | 109% | 67.1% | 69.3% | 119% | 68.7% | 99.7% | 103% |
| CC(C)C[C@@H](C(=O)N[C@H](C(=O)OC1CCCC1)c1ccccc1)[C@H](O)C(=O)NO [Tosedostat] (1000 nM) | 33.4% | 52.9% | 75.5% | 80.4% | 1.91% | 14.7% | 89% | 39.9% | 84.1% |
| CN(C)c1nc(N(C)C)nc(N(C)C)n1 [Altretamine] (10000 nM) | 152% | 109% | 97.5% | 102% | 87.6% | 112% | 112% | 102% | 91% |
| CNC(=O)c1cc(Oc2ccc(NC(=O)Nc3ccc(Cl)c(C(F)(F)F)c3)c(F)c2)ccn1 [Regorafenib] (1000 nM) | 143% | 87.7% | 108% | 101% | 103% | 115% | 110% | 102% | 103% |
| O=C(Nc1ccncc1)C(=O)c1cn(Cc2ccc(Cl)cc2)c2ccccc12 [Indibulin] (1000 nM) | 91.5% | 40.5% | 80.4% | 87.2% | 48.8% | 51.6% | 94.6% | 89.4% | 96.3% |
| CN(C)CCOc1ccc(/C(=C(/CCCl)c2ccccc2)c2ccccc2)cc1 [Toremifene] (1000 nM) | 101% | 102% | 70.4% | 108% | 106% |  | 55.3% | 99% | 89.1% |
| c1ccc2c(CCNc3ccc(Nc4ccncc4)cc3)c[nH]c2c1 [Serdemetan] (10000 nM) | 124% | 69.5% | 99.5% | 89.8% | 94% | 46.1% | 118% | 88.8% | 26% |
| CCc1c2c(nc3ccc(OC(=O)N4CCC(N5CCCCC5)CC4)cc13)-c1cc3c(c(=O)n1C2)COC(=O)[C@]3(O)CC [Irinotecan] (10000 nM) | 119% | -10.4% | 97.1% | 100% | 64.6% | 106% | 104% | 74.3% | 44.4% |
| COc1cc(OC2CCN(C)CC2)ccc1Nc1ncc2c(n1)n(C1CCCC1)c(=O)n2C [AZ 3146] (1000 nM) | 88.7% | 51.4% | 86% | 99.3% | 103% |  | 97.5% | 100% | 90.9% |
| C=C1C[C@@H]2[C@H](CC[C@]3(C)C(=O)CC[C@@H]23)[C@@]2(C)C=CC(=O)C=C12 [Exemestane] (1000 nM) | 149% | 106% | 95.1% | 112% | 99% | 99.6% |  | 105% | 96.9% |
| NC(=O)c1ccc(I)c([N+](=O)[O-])c1 [Iniparib] (10000 nM) | 146% | 83.7% | 77.5% | 77.3% | 142% |  |  | 88.8% | 101% |
